# Reference: publication PMC7010297, “How the initiating ribosome copes with ppGpp to translate mRNAs” (PLoS Biology, 2020)
# Several values for one entry are separate records, joined by “and”; a condition that tells them apart may be missing. Equal values may be shown once. Read-outs that look alike come from different tables or passages of the source.
# Experiments:
# [1] = target: T1, 30S-bound IF2 (30S IC) (Escherichia coli, UniProt P0A705); experiment: ppGpp (or GDP) to GTP competitive assay for 30S IC formation by MST; assay type: binding
# T1 construct: 6xHis (N); made in house
# Description: MST was calculated from the respective fluorescence time dependencies (S3 Fig). […] Symbols as in (B). […] Continuous lines indicate nonlinear regression fittings with quadratic (B and E) or same-site competition (G) functions. Three measurements were performed; mean and standard deviations are plotted (S1 Data).
# […] Symbols are as indicated, 3 measurements were performed, and mean and standard deviation are plotted (S1 Data). Continuous lines show nonlinear regression fittings with a same-site inhibition model. […] (PDF) Click here for additional data file.
# [2] = target: T2, 70S pre-IC (50S joining to 30S IC) (Escherichia coli, UniProt P0A705); experiment: 70S pre-IC formation by light scattering, stopped-flow; assay type: biochemical; set-up: K1, best-fit value / k2, best-fit value: unit not given here; details: for A0, best-fit value / K1, best-fit value / k2, best-fit value: fit Y=A0+A1*exp(-K1*x)+k2*x; for kfast (s-1) Avg: light scattering
# T2 construct: 6xHis (N); made in house
# Description: Continuous lines indicate nonlinear regression fittings with a quadratic equation. Three measurements were performed; mean and standard deviation are plotted (S1 Data). (B) as (A) to measure the concentration dependence for each tested guanosine nucleotide at constant IF2 (1 μM). […] Continuous lines show best fits using exponential functions. (D) Formation of 70S IC as measured by Bpy-tRNAi accommodation in the P site of the ribosome; 0.1 μM 30S ICs were formed with Bpy-tRNAi and rapidly mixed with 0.3 μM 50S subunits on a stopped-flow apparatus as described in [14]. Colors are as in (C). Continuous lines show best fits using an exponential function for a single reaction step. Each stopped-flow trace results from the mean of 5 to 7 replicates.
# (A) Scheme of 70S IC formation. […] Time traces were analyzed by nonlinear regression with exponential terms. […] Formation of 70S IC, as measured by Bpy-tRNAi accommodation in the absence (F) or presence of 200 μM ppGpp (G). Time traces were analyzed by nonlinear regression with one exponential term. […] Continuous lines show best fits using an exponential function for a single reaction step. All time traces are mean values of 5 to 10 replicates. Bar graphs show mean and standard errors (error bars) derived from the nonlinear regression fitting (D,E,H,I) (S1 Data).
# To measure 70S pre-IC formation, a SX-20 stopped-flow instrument (Applied Photophysics, Leatherhead, UK) was set up for LS recording with an excitation wavelength of 430 nm. Scattered light was measured at an angle of 90° without a filter. Pseudo first-order conditions were approximated by using ≥3-fold excess of 50S subunits over 30S ICs; 0.2 μM 30S ICs were rapidly mixed in the instrument with 0.6 μM 50S at 25 °C. Bpy-tRNAi accommodation was measured essentially as described elsewhere. Briefly, 0.2 μM 30S ICs were formed using Bpy-tRNAi and rapidly mixed with 0.6 μM 50S at 25 °C. Fluorescence was excited at 470 nm and measured after a 495-nm longpass filter. Individual traces (6–11 traces) were averaged, and the resulting kinetic curve was approximated by single (F = A0 + A1*exp (-kapp1*t)) or double (F = A0 + A1*exp (-kapp1*t) + A2*exp (-kapp2*t)) exponential fit using Graphpad Prism 6.0 software (GraphPad, San Diego, California).
# T2 sequence (P0A705 whole entry, looked up): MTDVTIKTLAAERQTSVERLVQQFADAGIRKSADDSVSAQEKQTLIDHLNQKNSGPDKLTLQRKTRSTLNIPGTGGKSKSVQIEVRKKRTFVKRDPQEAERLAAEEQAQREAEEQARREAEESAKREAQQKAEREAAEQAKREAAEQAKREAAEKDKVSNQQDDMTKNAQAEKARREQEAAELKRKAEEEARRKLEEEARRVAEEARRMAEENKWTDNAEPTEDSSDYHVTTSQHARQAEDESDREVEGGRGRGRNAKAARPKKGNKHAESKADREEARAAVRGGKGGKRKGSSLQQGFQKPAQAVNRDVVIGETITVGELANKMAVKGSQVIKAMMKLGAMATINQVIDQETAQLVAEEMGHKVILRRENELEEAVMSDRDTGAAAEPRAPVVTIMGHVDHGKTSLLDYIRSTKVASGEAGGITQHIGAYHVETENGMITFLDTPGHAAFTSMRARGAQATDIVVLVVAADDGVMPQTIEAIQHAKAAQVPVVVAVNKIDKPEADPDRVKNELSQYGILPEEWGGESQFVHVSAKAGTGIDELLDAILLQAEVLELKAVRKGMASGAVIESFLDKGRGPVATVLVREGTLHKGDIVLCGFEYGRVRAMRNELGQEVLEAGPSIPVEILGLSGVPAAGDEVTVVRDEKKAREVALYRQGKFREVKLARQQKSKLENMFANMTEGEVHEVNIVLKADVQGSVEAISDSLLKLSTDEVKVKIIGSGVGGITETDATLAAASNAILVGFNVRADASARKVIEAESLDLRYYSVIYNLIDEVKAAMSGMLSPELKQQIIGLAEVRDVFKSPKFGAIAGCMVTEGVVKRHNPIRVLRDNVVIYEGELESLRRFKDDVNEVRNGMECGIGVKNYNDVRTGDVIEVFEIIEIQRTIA
# T1 sequence (P0A705 whole entry, looked up): as above
structure (smiles),measurement,setting,value
Nc1nc2c(ncn2[C@@H]2O[C@H](COP(=O)(O)OP(=O)(O)O)[C@@H](OP(=O)(O)OP(=O)(O)O)[C@H]2O)c(=O)[nH]1 [ppGpp],MST Average,"[1]; mMF1, Log [ppGpp] -0.61",1029.40 a.u.
same,IC50,"[1]; mRNA mInfA, read-out: IC50 Average",29 µM
same,IC50,"[1]; mRNA mInfA, read-out: IC50 Replicates",28.5 µM and 29 µM and 29.5 µM
same,IC50,"[1]; mRNA mMF1, read-out: IC50 Average",8.64 µM
same,IC50,"[1]; mRNA mMF1, read-out: IC50 Replicates",8.44 µM and 8.71 µM and 8.75 µM
same,IC50,"[1]; mRNA mTufA, read-out: IC50 Average",131 µM
same,IC50,"[1]; mRNA mTufA, read-out: IC50 Replicates",130 µM and 131 µM and 132 µM
same,MST Average,"[1]; mTufA, Log [ppGpp] 0.29",1135.97 a.u.
same,MST Average,"[1]; mTufA, Log [ppGpp] 0.59",1126.95 a.u.
same,MST Average,"[1]; mTufA, Log [ppGpp] 0.89",1118.40 a.u.
same,MST Average,"[1]; mTufA, Log [ppGpp] 1.19",1113.08 a.u.
same,MST Replicates (a.u.),"[1]; mTufA, Log [ppGpp] 1.19",1112.21 a.u. and 1113.44 a.u. and 1113.60 a.u.
same,MST Average,"[1]; mTufA, Log [ppGpp] 1.49",1095.20 a.u.
same,MST Replicates (a.u.),"[1]; mTufA, Log [ppGpp] 1.49",1094.85 a.u. and 1094.92 a.u. and 1095.85 a.u.
same,MST Average,"[1]; mTufA, Log [ppGpp] 1.80",1070.12 a.u.
same,MST Replicates (a.u.),"[1]; mTufA, Log [ppGpp] 1.80",1069.34 a.u. and 1070.42 a.u. and 1070.61 a.u.
same,MST Average,"[1]; mTufA, Log [ppGpp] 2.10",1051.04 a.u.
same,MST Replicates (a.u.),"[1]; mTufA, Log [ppGpp] 2.10",1050.31 a.u. and 1051.38 a.u. and 1051.44 a.u.
same,MST Average,"[1]; mTufA, Log [ppGpp] 2.40",1030.04 a.u.
same,MST Average,"[1]; mTufA, Log [ppGpp] 2.70",1004.77 a.u.
same,MST Average,"[1]; mTufA, Log [ppGpp] -0.01",1139.93 a.u.
same,MST Average,"[1]; mTufA, Log [ppGpp] -0.31",1146.28 a.u.
same,MST Average,"[1]; mTufA, Log [ppGpp] -0.61",1160.80 a.u.
same,IC50,"[1]; read-out: IC50 of 30S IC formation, mInfA, competition with 50 μM GTP",29 ± 1 µM
same,IC50,"[1]; read-out: IC50 of 30S IC formation, mMF1, competition with 50 μM GTP",8.6 ± 0.2 µM
same,IC50,"[1]; read-out: IC50 of 30S IC formation, mTufA with SRs I–III removed (+371)",50 ± 5 µM
same,IC50,"[1]; read-out: IC50 of 30S IC formation, mTufA, competition with 50 μM GTP",132 ± 1 µM
same,efficiency (amplitude) of 70S pre-IC formation,"[2]; 0.2 mM nucleotide, no GTP",reduced efficiencies
same,rapid 70S pre-IC formation in the absence of GTP,"[2]; 0.2 mM nucleotide, noncompetitive (S6 Fig)",negligible
same,"A0, best-fit value",[2]; mInfA,1.01
same,"K1, best-fit value",[2]; mInfA,1.203 and 1.20
same,"k2, best-fit value",[2]; mInfA,0.0007 and 0.000671
same,"A0, best-fit value",[2]; mMF1,1.01
same,"K1, best-fit value",[2]; mMF1,2.759 and 2.76
same,"k2, best-fit value",[2]; mMF1,0.0007 and 0.000692
same,LS amplitude (a.u.) Avg,[2]; mRNA mInfA,0.011 a.u.
same,kfast (s-1) Avg,[2]; mRNA mInfA,1.20 s⁻¹
same,LS amplitude (a.u.) Avg,[2]; mRNA mMF1,0.012 a.u.
same,kfast (s-1) Avg,[2]; mRNA mMF1,2.76 s⁻¹
same,LS amplitude (a.u.) Avg,[2]; mRNA mTufA,0.035 a.u.
same,kfast (s-1) Avg,[2]; mRNA mTufA,3.76 s⁻¹
same,"A0, best-fit value",[2]; mTufA,1.03
same,"K1, best-fit value",[2]; mTufA,3.763 and 3.76
same,"k2, best-fit value",[2]; mTufA,0.0010 and 0.00104
